The source made the active and inactive calls. No cut-off for these calls is given here.
Test system: Trypanosoma cruzi
Test: Inhibition of recombinant Trypanosoma cruzi trans-sialidase catalytic N-terminal domain preincubated at 1 mM for 10 mins by continuous fluorimetric assay

Row | inhibition | SMILES
1 | inactive | COC(=O)c1ccc(O[C@@H]2O[C@H](CO)[C@H](O)[C@H](OCC(=O)OC(C)(C)C)[C@H]2O)c([N+](=O)[O-])c1
2 | inactive | COC(=O)c1ccc(O[C@@H]2O[C@H](CO)[C@H](O)[C@H](OCC(=O)OC(C)(C)C)[C@H]2O)cc1
3 | 68% | Cc1ncc(COP(=O)(O)O)c(C=O)c1O
4 | 7% | COC(=O)c1ccc(O[C@@H]2O[C@H](CO)[C@H](O)[C@H](OC)[C@H]2O)cc1
5 | 18% | COC(=O)c1ccc(O[C@@H]2O[C@H](CO)[C@H](O)[C@H](OCc3nnn[nH]3)[C@H]2O)c([N+](=O)[O-])c1
6 | inactive | COC(=O)c1ccc(O[C@@H]2O[C@H](CO)[C@H](O)[C@H](OCC(=O)O)[C@H]2O)cc1
7 | 21% | COC(=O)c1ccc(O[C@@H]2O[C@H](CO)[C@H](O)[C@H](OCC(=O)O)[C@H]2O)c([N+](=O)[O-])c1
8 | 13% | CCCCCCCCO[C@@H]1O[C@H](CO)[C@H](O)[C@H](OC)[C@H]1O
9 | inactive | COC(=O)c1ccc(O[C@@H]2O[C@H](CO)[C@H](O)[C@H](OCc3nnn[nH]3)[C@H]2O)cc1
10 | 16% | COC(=O)c1ccc(O[C@@H]2O[C@H](CO)[C@H](O)[C@H](O)[C@H]2O)c([N+](=O)[O-])c1
11 | 16% | COC(=O)c1ccc(O[C@@H]2O[C@H](CO)[C@H](O)[C@H](OC)[C@H]2O)c([N+](=O)[O-])c1
12 | 11% | COC(=O)c1ccc(O[C@@H]2O[C@H](CO)[C@H](O)[C@H](O)[C@H]2O)cc1
13 | inactive | COC(=O)c1ccc(O[C@@H]2O[C@H](CO)[C@H](O)[C@H](OCC#N)[C@H]2O)c([N+](=O)[O-])c1
14 | 7% | COC(=O)c1ccc(O[C@@H]2O[C@H](CO)[C@H](O)[C@H](OCC#N)[C@H]2O)cc1
